Test results reported in patent publication US20050119275A1, “Salt and crystal forms of (5-chloro-2-{2-[4-(4-fluoro-benzyl)-(2R,5S)-2,5-dimethyl-piperazin-1-yl]-2-oxo-ethoxy}-phenyl)-methanesulfonic acid” (Pfizer Inc., priority 2003, published 2005).

Columns and labels:
CCR1 [1] = target: T1, CCR1 (Homo sapiens, UniProt P32246); assay: Inhibition of MIP-1α (CCL3) binding to its receptor CCR1; conditions: CCR1 found on inflammatory and immunomodulatory cells; statement in words
T1 sequence (P32246 1-355): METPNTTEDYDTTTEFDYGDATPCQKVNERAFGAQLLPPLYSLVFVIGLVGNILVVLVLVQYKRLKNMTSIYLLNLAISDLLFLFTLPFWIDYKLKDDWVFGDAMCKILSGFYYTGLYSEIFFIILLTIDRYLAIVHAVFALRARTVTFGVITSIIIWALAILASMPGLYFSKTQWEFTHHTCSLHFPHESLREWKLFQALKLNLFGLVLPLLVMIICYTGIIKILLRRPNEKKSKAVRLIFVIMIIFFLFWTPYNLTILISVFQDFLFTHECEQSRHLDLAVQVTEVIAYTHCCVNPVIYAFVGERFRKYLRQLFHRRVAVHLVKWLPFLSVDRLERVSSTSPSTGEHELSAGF

CCR1 [2] = target: T1, CCR1; assay: Chemotaxis assay (Boyden chamber, MIP-1α induced migration); assay type: cell-based; design: THP-1 cells (ATCC TIB-202), primary human monocytes, or primary lymphocytes, isolated by standard techniques can then be added to the upper chambers; endogenous in cells; host or cells: THP-1 cells (ATCC TIB-202), primary human monocytes or primary lymphocytes; conditions: statement in words
Source text: The activity of the compounds of the invention can be assessed according to procedures know to those of ordinary skill in the art. Examples of recognized methods for determining CCR1 induced migration can be found in Coligan, J. E., Kruisbeek, A. M., Margulies, D. H., Shevach, E. M., Strober, W. editors: Current Protocols In Immunology, 6.12.1-6.12.3. (John Wiley and Sons, NY, 1991). One specific example of how to determine the activity of a compound for inhibiting migration is described in detail below.
The ability of compounds to inhibit the chemotaxis to various chemokines can be evaluated using standard 48 or 96 well Boyden Chambers with a 5 micron polycarbonate filter. […] The amount of agonist chosen is that determined to give the maximal amount of chemotaxis in this system (e.g., 1 nM for MIP-1α should be adequate). […]
After a suitable incubation period at 37 degrees centigrade (e.g. 3.5 hours for THP-1 cells, 90 minutes for primary monocytes), the chamber is removed, the cells in the upper chamber aspirated, the upper part of the filter wiped and the number of cells migrating can be determined according to the following method.
For THP-1 cells, the chamber (a 96 well variety manufactured by Neuroprobe) can be centrifuged to push cells off the lower chamber and the number of cells can be quantitated against a standard curve by a color change of the dye fluorocein diacetate. […]

## C[C@@H]1CN(Cc2ccc(F)cc2)[C@@H](C)CN1C(=O)COc1ccc(Cl)cc1CS(=O)(=O)O [(5-Chloro-2-{2-[4-(4-fluoro-benzyl)-(2R,5S)-2,5-dimethyl-piperazin-1-yl]-2-oxo-ethoxy}-phenyl)-methanesulfonic acid]
CCR1 [1]
  inhibition of MIP-1α (CCL3) binding to its receptor CCR1: potent inhibitor
CCR1 [2]
  inhibition of MIP-1α (and related chemokines) induced chemotaxis of THP-1 cells and human leukocytes: inhibits
